Assay results published in patent US20130196050A1, “SALTY TASTE ENHANCER” (AJINOMOTO CO., INC., priority 2010, published 2013).

Molecular target: T1, Human ENaC δ, β and γ subunit (Homo sapiens, UniProt P51168+P51170+P51172)
T1 construct: expressed in transfected cells; host or cells: Xenopus laevis (African clawed frog) oocytes injected with cRNA
T1 sequence (P51172 1-638 isoform P51172-1): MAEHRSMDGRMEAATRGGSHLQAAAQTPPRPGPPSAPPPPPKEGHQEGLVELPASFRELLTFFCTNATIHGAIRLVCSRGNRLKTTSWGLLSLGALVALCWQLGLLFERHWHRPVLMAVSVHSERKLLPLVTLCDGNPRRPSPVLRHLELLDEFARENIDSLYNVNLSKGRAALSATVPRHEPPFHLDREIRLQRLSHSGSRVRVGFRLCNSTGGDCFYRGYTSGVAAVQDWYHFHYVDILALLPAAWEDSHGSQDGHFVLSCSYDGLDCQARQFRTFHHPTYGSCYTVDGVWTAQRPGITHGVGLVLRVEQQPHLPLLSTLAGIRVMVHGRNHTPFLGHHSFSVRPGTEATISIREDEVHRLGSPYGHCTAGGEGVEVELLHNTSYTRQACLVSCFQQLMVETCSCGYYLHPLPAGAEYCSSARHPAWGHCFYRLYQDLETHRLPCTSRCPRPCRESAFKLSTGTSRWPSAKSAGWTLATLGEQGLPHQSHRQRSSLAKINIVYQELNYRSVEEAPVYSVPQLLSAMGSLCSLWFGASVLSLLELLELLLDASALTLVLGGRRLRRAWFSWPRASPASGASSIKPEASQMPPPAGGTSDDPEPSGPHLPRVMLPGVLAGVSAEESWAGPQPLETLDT
T1 sequence (P51168 1-640): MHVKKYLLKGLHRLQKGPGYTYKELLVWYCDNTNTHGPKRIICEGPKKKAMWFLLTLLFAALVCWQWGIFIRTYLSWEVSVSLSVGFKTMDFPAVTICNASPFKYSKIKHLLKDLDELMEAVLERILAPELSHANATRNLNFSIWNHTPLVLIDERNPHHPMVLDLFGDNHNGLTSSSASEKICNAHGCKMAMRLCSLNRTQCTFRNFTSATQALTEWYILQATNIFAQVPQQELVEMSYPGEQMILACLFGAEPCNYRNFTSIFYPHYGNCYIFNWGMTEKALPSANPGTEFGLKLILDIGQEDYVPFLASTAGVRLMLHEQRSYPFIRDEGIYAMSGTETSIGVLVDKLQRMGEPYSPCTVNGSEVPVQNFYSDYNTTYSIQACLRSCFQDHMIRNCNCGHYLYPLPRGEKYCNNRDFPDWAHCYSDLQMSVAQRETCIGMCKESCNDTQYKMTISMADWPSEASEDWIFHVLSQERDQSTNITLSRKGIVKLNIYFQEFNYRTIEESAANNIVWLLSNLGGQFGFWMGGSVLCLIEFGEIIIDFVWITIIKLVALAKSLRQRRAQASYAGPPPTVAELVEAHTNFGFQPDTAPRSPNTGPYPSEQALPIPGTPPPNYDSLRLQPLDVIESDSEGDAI
T1 sequence (P51170 1-649): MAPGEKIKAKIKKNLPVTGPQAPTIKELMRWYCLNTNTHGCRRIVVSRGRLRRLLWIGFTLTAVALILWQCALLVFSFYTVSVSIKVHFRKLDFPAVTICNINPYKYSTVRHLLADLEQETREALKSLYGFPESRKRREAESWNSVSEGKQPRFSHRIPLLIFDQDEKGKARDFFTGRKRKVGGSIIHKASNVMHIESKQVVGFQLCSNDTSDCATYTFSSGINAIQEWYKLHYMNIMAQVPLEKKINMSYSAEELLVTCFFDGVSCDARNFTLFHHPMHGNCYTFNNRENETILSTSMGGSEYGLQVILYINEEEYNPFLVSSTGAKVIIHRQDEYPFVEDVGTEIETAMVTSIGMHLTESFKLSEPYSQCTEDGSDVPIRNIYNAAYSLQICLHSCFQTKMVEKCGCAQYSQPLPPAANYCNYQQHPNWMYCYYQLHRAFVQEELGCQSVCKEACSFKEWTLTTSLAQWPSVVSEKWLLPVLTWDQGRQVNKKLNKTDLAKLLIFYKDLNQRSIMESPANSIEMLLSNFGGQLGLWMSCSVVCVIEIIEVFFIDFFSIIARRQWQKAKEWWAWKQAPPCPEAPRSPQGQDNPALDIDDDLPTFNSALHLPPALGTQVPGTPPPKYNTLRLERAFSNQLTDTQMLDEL
Assay: Measurement of ENaC activation potency (two electrode voltage clamp current in ENaC-expressing oocyte)
Type: cell-based
Conditions: lowest concentration increasing the current value by not less than 10% vs before addition
Description: ENaC activation current value, namely, the inward current in ENaC-expressing oocyte was measured as follows.
According to the method described in Motonao Nakamura, Takao Shimizu: Experiment of African clawed frog oocyte, Experimental Medicine Vol. 11, No. 3, 224-232 (1993), oocyte was collected from African clawed frog, […], and the current value was measured by a Two Electrode Voltage Clamp technique. In the present invention, ND96 (96 mM NaCl, 2 mM KCl, 1 mM MgCl2, 5 mM Hepes, 1.8 mM CaCl2, pH 7.6) was used instead of MBS buffer in the above-mentioned document. Injector NANOLITER 2000 manufactured by World Precision Instruments was used for microinjection, OpusXpress 6000A manufactured by Molecular Devices was used for current value measurement by a Two Electrode Voltage Clamp technique, and Clampfit 10.2 software manufactured by Molecular Devices was used for data analysis.
Human ENaC δ, β and γ subunit genes shown by SEQ ID NOs: 1, 2 and 3, respectively, in the Sequence Listing were each cloned into a plasmid vector, and used as a template DNA for cRNA synthesis. cRNA was synthesized using MEGAscript kit manufactured by Ambion and according to the method of the manual of the manufacturer.
A mixture of the same amount of ENaC δ subunit cRNA (0.4 to 0.8 μg/μL), and β and γ subunits cRNA (0.4 μg/μL) was injected into the oocyte of African clawed frog at 27.6 nL per oocyte, and the oocyte was cultured for 16 hours to 72 hours. Thereafter, the oocyte was set on a measuring apparatus OpusXpress 6000A, the electrodes were inserted into the oocyte, the voltage was clamped at a level lower by −30 mV than the resting membrane potential by a Two Electrode Voltage Clamp technique, and the current value was measured.
To measure the ENaC activation potency, oocyte was stimulated with each test compound, and the minimum effective dose (hereinafter to be abbreviated as MED) of the compound at the time point when the electric current started to increase was measured. In this case, the minimum effective dose of the stimulation compound that increased the current value by not less than 10%, as compared to the current value before addition of the compound and without stimulation, was taken as MED. A smaller MED means higher ENaC activation potency.
Each test compound was directly dissolved in ND96, or first dissolved in dimethyl sulfoxide (DMSO) to 100 mM, and then prepared by diluting the solution with ND96 to a concentration used for the evaluation. The concentration of the test compound in ND96 was prepared to various concentrations within the range of 0.1 nM to 300 μm.
ND96 as a perfusion fluid was flowed at a rate of 0.5 mL/min through the measuring apparatus OpusXpress 6000A on which ENaC-expressing oocyte was set, the perfusion fluid was temporarily stopped every 3 minutes to add a test compound solution (0.25 mL) dissolved in ND96 at a rate of 0.5 mL/minute. In this way, the test compound was contacted with ENaC-expressing oocyte, and whether ENaC is activated by the compound was examined by measuring the current value. After addition of the test compound, feeding of the perfusion fluid was resumed to wash away the compound to be ready for the next addition of the compound.
The compound was added successively from a low concentration to a high concentration to stimulate ENaC-expressing oocyte. The concentrations actually added was, for example, 1 nM, 3 nM, 10 nM, 30 nM, 100 nM, 300 nM; 1 μM, 3 μM, 10 μm, 30 μm, 100 μm, 300 μm; 1.2 μM, 6 μM, 30 μm, 150 μm of one test compound. The compound was added from low concentrations to high concentrations at 3 minute intervals. The first compound was added from a low concentration to a high concentration, then the second and the third compounds were similarly added successively to the same oocyte, and changes in the current value were measured. The current value was continuously measured from the start to the end of the experiment. […]

SMILES	MED value (minimum effective dose)
COc1cccc(OC)c1C(=O)NCCc1c[nH]c2ccc(O)cc12 [Example 25]	3 µM
N[C@@H](CCc1ccccc1)C(=O)Nc1ccccc1S(=O)(=O)O [Example 103]	1 µM
N[C@@H](Cc1c[nH]c2ccccc12)C(=O)Nc1ccccc1S(=O)(=O)O [Example 119]	0.3 µM
O=C(N[C@H](Cc1c[nH]c2ccccc12)C(=O)O)c1c(O)cccc1O [Example 4]	0.6 µM
CCOC(=O)[C@H](Cc1ccccc1)NC(=O)c1c(O)cc(C)cc1O [Example 114]	10 µM
COC(=O)[C@H](Cc1ccccc1)NC(=O)c1ccc(Br)cc1O [Example 107]	3 µM
O=C(NCCc1c[nH]c2ccccc12)c1c(O)cc(O)cc1O [Example 125]	1 µM
O=C(N[C@@H](CCc1ccccc1)C(=O)O)c1c(O)cccc1O [Example 83]	0.3-1^ μM
COC(=O)[C@H](Cc1ccccc1)NC(=O)c1cc(Br)ccc1O [Example 96]	1 µM
O=C(N[C@H](Cc1c[nH]c2ccccc12)C(=O)O)c1cc(O)ccc1O [Example 41]	1 µM
CC(Cc1c[nH]c2ccccc12)(NC(=O)c1c(O)cccc1O)C(=O)O (stereo not drawn) [Example 18]	3 µM
O=C(CCc1ccccc1)NC(C(=O)O)c1ccccc1 (stereo not drawn) [Example 79]	10 µM
Cc1ccc2c(CC(NC(=O)CCc3ccccc3)C(=O)O)c[nH]c2c1 (stereo not drawn) [Example 77]	1 to 3 µM
Cc1ccc2[nH]cc(CC(NC(=O)CCc3ccccc3)C(=O)O)c2c1 (stereo not drawn) [Example 73]	1 to 3 µM
N[C@H](Cc1c[nH]c2ccccc12)C(=O)Nc1c(O)cccc1O [Example 23]	10 µM
COC(=O)[C@H](Cc1c[nH]c2ccccc12)NC(=O)c1c(O)cc(O)cc1O [Example 120]	0.3 µM
CC(Cc1ccccc1)(NC(=O)CCc1ccccc1)C(=O)O (stereo not drawn) [Example 75]	3 to 10 µM
COC(=O)[C@H](Cc1c[nH]c2ccc(O)cc12)NC(=O)c1c(O)cccc1O [Example 10]	3 µM

SMILES	MED value (minimum effective dose)
O=C(NCCc1c[nH]c2ccc(O)cc12)c1c(O)cc(O)cc1O [Example 28]	1 to 3 µM
O=C(CCc1ccccc1)N[C@@H](Cc1c[nH]c2ccccc12)C(=O)O [Example 63]	1 to 3 µM
O=C(N[C@@H](Cc1ccccc1)C(=O)O)c1ccc(Br)cc1O [Example 108]	0.1 to 0.3 µM
O=C(N[C@@H](Cc1c[nH]c2ccccc12)C(=O)OCc1ccccc1)c1c(O)cccc1O [Example 15]	10 µM
COC(=O)[C@@H](Cc1c[nH]c2ccccc12)NC(=O)c1c(O)cccc1O [Example 2]	0.6 µM
CCOC(=O)[C@H](Cc1ccccc1)NC(=O)c1cc(Br)ccc1O [Example 109]	3 µM
O=C(NCCc1c[nH]c2ccccc12)c1cc(Br)ccc1O [Example 95]	1 µM
O=C(O)c1ccccc1C(=O)NCCc1c[nH]c2ccc(O)cc12 [Example 9]	3 µM
O=C(CCc1c[nH]c2ccccc12)Nc1c(O)cccc1O [Example 87]	3 µM
O=C(NCCc1c[nH]c2ccc(O)cc12)c1ccc(Br)cc1O [Example 104]	3 µM
O=C(N[C@@H](Cc1ccccc1)C(=O)O)c1c(O)cc(O)cc1O [Example 123]	10 µM
O=C(CCc1ccccc1)N[C@@H](Cc1c[nH]c2ccc(O)cc12)C(=O)O [Example 74]	10 µM
COC(=O)[C@H](Cc1c[nH]c2ccccc12)NC(=O)c1ccc(Br)cc1O [Example 106]	3 µM
COc1ccc(CCC(=O)Nc2c(O)cccc2O)cc1O [Example 89]	10 µM
COC(=O)[C@H](Cc1c[nH]c2ccccc12)NC(=O)c1cc(Br)ccc1O [Example 92]	3 to 10 µM
O=C(N[C@@H](Cc1c[nH]c2ccccc12)C(=O)O)c1c(O)cccc1O [Example 3]	0.6 µM
O=C(NCCc1c[nH]c2ccc(O)cc12)c1c(C(F)(F)F)cccc1C(F)(F)F [Example 26]	6 µM
O=C(NCCc1c[nH]c2ccc(O)cc12)c1cc(Br)ccc1O [Example 93]	0.3 µM
